Earlier results as cited in patent US20090023773A1, “COMPOSITIONS AND METHODS FOR MODULATING GATED ION CHANNELS” (PainCeptor Pharma Corporation, priority 2007, published 2009).

Target: T1, hASIC2a/3 steady state (window) current (Homo sapiens, UniProt Q16515+Q9UHC3)
T1 construct: expressed in transfected cells; host or cells: Xenopus laevis oocytes, cRNA microinjection, 1:1 mass ratio
T1 sequence (Q16515 1-512): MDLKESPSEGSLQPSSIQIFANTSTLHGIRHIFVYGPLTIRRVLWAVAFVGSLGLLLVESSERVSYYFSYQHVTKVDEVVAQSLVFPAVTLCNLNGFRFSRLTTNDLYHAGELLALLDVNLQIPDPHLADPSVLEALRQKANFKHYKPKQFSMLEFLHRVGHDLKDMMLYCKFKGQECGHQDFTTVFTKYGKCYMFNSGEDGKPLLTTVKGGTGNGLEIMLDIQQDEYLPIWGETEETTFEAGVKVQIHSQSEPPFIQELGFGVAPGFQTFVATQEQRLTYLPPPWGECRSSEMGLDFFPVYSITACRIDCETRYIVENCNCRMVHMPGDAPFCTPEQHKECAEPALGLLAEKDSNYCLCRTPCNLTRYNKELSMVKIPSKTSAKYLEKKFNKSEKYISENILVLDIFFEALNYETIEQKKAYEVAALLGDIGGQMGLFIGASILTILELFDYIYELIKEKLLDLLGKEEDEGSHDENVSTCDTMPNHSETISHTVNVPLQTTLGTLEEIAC
T1 sequence (Q9UHC3 1-531): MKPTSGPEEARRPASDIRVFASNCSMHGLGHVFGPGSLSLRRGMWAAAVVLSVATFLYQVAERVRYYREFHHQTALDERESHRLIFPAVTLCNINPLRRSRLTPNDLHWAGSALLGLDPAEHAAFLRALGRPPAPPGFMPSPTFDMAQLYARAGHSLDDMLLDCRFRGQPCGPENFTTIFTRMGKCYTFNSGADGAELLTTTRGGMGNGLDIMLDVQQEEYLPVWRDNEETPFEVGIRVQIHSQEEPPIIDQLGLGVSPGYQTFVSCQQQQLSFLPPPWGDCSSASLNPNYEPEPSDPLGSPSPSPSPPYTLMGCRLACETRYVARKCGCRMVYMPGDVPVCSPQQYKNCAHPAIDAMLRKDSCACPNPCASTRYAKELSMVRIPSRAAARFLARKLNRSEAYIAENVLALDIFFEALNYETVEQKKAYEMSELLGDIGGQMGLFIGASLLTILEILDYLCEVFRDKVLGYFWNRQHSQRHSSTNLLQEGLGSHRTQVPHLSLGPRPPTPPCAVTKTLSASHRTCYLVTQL
Conditions: supramaximal concentration; Babinski et al. (2000); cited from earlier work

## [Gd+3] [gadolinium (Gd^3+)]
  block of the ASIC2A/3 steady state current: completely block
